Measurements as given in US12129265B2, “Therapeutic agents and uses thereof” (Ankh Life Sciences Limited, priority 2020, dated 2024).
Read-outs that look alike come from different tables or passages of the source.

Assays:
Assay in all cases: CellTiter-Glo in vitro cell proliferation assay, Example 8
Type in all cases: cell-based, Human
JIM1 cells = conditions: JIM1, HMCL, read-out: Mean IC50
Procedure: (§1) In this Example, in vitro cell proliferation assays were performed using: (1) Human Myeloma tumor cell lines; (2) Human Lymphoma tumor cell lines; (3) Solid Human tumor cell lines; and (4) Parental, Lenalidomide resistant and Bortezomib resistant Jeko-1 Mantle cell Lymphoma tumor cell lines. The compounds tested were three diharmaline compounds, namely the 518B562 (or simply 562), 560, and 561 compounds. In addition, a monoharmaline product designated as 518F014 was also tested. This monoharmaline product had the following structure:
(§2) Each proliferation assay was carried out as follows. The test cells were plated in growth media using a 384-well microtiter plate at 50 μL volume. The cells were incubated for 24 hours at 37° C. in a humidified incubator. After 24 hours of incubation, the test compounds were added to the test wells in DSMO solvent, at concentrations ranging from 0.0075-100 μM. Control wells received equal volumes of DSMO, without compound. Following drugging, the cells were incubated for 72 hours at 37° C. in a humidified incubator. After this exposure, 100 μL of a 1:1 mixture of sterile water and CellTiter-Glo® reagent (Promega) was added to each well. The plates were then incubated for 60 minutes at room temperature, followed by recording the luminescence value of each well using a luminometer as a measure of cell proliferation.

MIA PaCa-2 cells = conditions: MIA PaCa-2, Pancreatic, read-out: Mean IC50
Procedure: as §1, §2

DOHH-2 cells = conditions: DoHH-2, GCB-DLBCL, read-out: Mean IC50
Procedure: as §1, §2

L363 cells = conditions: L363, PCL/MM, read-out: Mean IC50
Procedure: as §1, §2

FaDu cells = conditions: H&N - SC, read-out: Mean IC50
Procedure: as §1, §2

KMM-1 cells = conditions: KMM-1, HMCL-A, read-out: Mean IC50
Procedure: as §1, §2

ASPC-1 cells = conditions: ASPC-1, Pancreatic, read-out: Mean IC50
Procedure: as §1, §2

A2780 cells = conditions: A2780, Ovarian, read-out: Mean IC50
Procedure: as §1, §2

MDA-MB-231 cells = conditions: MDA-MB-231, TNBC; read-out: Mean IC50
Procedure: as §1, §2

MOLP-8 cells = conditions: MOLP-8, MM IgD; read-out: Mean IC50
Procedure: as §1, §2

A2780CP cells = conditions: Ovarian, read-out: Mean IC50
Procedure: as §1, §2

OCI-LY3 cells = conditions: OCI-LY3, ABC-DLBCL; read-out: Mean IC50
Procedure: as §1, §2

AN3CA cells = conditions: Endometrial, read-out: Mean IC50
Procedure: as §1, §2

MDA-MB-468 cells = conditions: MDA-MB-468, TNBC; read-out: Mean IC50
Procedure: as §1, §2

SiHA cells = conditions: Cervical - SC, read-out: Mean IC50
Procedure: as §1, §2

BxPC-3 cells = conditions: BxPC-3, Pancreatic; read-out: Mean IC50
Procedure: as §1, §2

KMS-34 cells = conditions: KMS-34, HMCL-B; read-out: Mean IC50
Procedure: as §1, §2

RPMI-8226 cells = conditions: RPMI-8226, HMM
Procedure: as §2
In this example, different cell lines were subjected to in vitro cell proliferation assays as described in Example 8. In particular, the cell lines are identified in the following Table 17, and the tissue types were: Pancreatic; Endometrial; Triple-Negative Breast Cancer (TNBC); Non-Small-Cell Lung Carcinoma (NSCLC); Ovarian; Renal Cell Carcinoma (RCC); Cervical-Squamous Cell; […] (H&N-Squamous Cell); Germinal Center B Cell-Like Novo Diffuse Large B-Cell Lymphoma (GCB-DLBCL); Activated B-Cell—Diffuse Large B Cell Lymphoma (ABC-DLBCL); Human Myeloma; Human Myeloma Cell Line Lymphocyte-Like; Human Myeloma Cell Line Lymphocyte-Like Myeloma Pleural Effusion Infiltration; Human Multiple Myeloma; Plasma Cell Leukemia/Multiple Myeloma Epstein-Barr Nuclear Antigen-Negative (EBNA-Negative) and to Express mRNA for Proto-Oncogene B-Cell Lymphoma 2 (BCL2); Multiple Myeloma from Peripheral Blood Type IgD Lmabda.

HCC70 cells = conditions: HCC70, TNBC; read-out: Mean IC50
Procedure: as §1, §2

HEC-1a cells = conditions: Endometrial, read-out: Mean IC50
Procedure: as §1, §2

H1975 (EGFR mut) cells = conditions: NSCLC, read-out: Mean IC50
Procedure: as §1, §2

H1650 (EGFR mut) cells = conditions: NSCLC, read-out: Mean IC50
Procedure: as §1, §2

A498 cells = conditions: A498, RCC; read-out: Mean IC50
Procedure: as §1, §2

SMILES | IC50 (MDA-MB-231 cells) | IC50 (JIM1 cells) | IC50 (MOLP-8 cells) | IC50 (MIA PaCa-2 cells) | IC50 (DOHH-2 cells) | IC50 (A2780CP cells) | IC50 (OCI-LY3 cells) | IC50 (AN3CA cells) | IC50 (MDA-MB-468 cells) | IC50 (L363 cells) | IC50 (FaDu cells) | IC50 (KMM-1 cells) | IC50 (BxPC-3 cells) | IC50 (KMS-34 cells) | IC50 (RPMI-8226 cells) | IC50 (HCC70 cells) | IC50 (HEC-1a cells) | IC50 (H1975 (EGFR mut) cells) | IC50 (H1650 (EGFR mut) cells) | IC50 (ASPC-1 cells) | further results
COc1cc(C2CC3(CC4(NCCc5sccc54)C2C2=NCCc4sccc42)NCCc2sccc23)ccc1O (stereo not shown) [HRM05] |  |  |  |  |  |  |  |  |  |  |  |  |  |  |  |  |  |  |  |  | IC50 (JIM1 cells; Homo sapiens): 17.6 µM; IC50 (MIA PaCa-2 cells; Homo sapiens): 12.2 µM; IC50 (DOHH-2 cells; Homo sapiens): 17.6 µM; IC50 (L363 cells; Homo sapiens, L-363): 13.7 µM; IC50 (FaDu cells; Homo sapiens): 14 µM; IC50 (KMM-1 cells; Homo sapiens): 12.5 µM; IC50 (ASPC-1 cells; Homo sapiens, ASPC1): 20.2 µM; IC50 (A2780 cells; Homo sapiens): 15.9 µM
COc1ccc2c3c([nH]c2c1)C(CC(CC1=NCCc2c1[nH]c1cc(OC)ccc21)c1ccc(OC(C)=O)c(OC)c1)=NCC3 [compound 6] | 60.5 µM | 18 µM | 11.5 µM | 13.6 µM | 6.91 µM | 70.7 µM | 11.3 µM | 21.4 µM | 14.5 µM | 16.3 µM | 15.8 µM | 16.9 µM | 15.8 µM | 11 µM | 10.3 µM |  |  |  |  |  | IC50 (SiHA cells): 74.8 µM
COc1ccc(C(CC2=NCCc3c2[nH]c2cc(OC)ccc32)CC2=NCCc3c2[nH]c2cc(OC)ccc32)c(O)c1 [compound 8] | 24.4 µM | 14.3 µM | 10.1 µM | 24.2 µM | 6.37 µM | 49.8 µM | 11.3 µM | 20.2 µM | 8.45 µM | 12.6 µM | 16.1 µM | 13.2 µM | 21.9 µM | 11.1 µM | 11.5 µM | 24.9 µM | 65.8 µM | 55.1 µM | 59.9 µM | 55.6 µM | IC50 (A498 cells): 78.7 µM; IC50 (A2780 cells): 18.7 µM
COc1ccc2c3c([nH]c2c1)C(CC(CC1=NCCc2c1[nH]c1cc(OC)ccc21)c1cc(Cl)c(O)c(OC)c1)=NCC3 [compound 9] | 45.8 µM | 40.6 µM | 6.59 µM | 52.6 µM | 9.76 µM | 60.3 µM | 11.9 µM | 29.3 µM | 12.7 µM | 19.7 µM | 72.3 µM | 16 µM | 30 µM | 11.4 µM | 11.5 µM | 39 µM | 95.6 µM | 54.6 µM | 79.7 µM | 70 µM | IC50 (A2780 cells): 35.7 µM
COc1ccc2c3c([nH]c2c1)C(CC(CC1=NCCc2c1[nH]c1cc(OC)ccc21)c1ccc(OC)c(Oc2ccccc2)c1)=NCC3 [compound 10] | 43.7 µM | 20.1 µM | 8.28 µM | 11.9 µM | 2.78 µM | 29.4 µM | 7.57 µM | 31.7 µM | 11.4 µM | 35.6 µM | 49.7 µM | 11.1 µM | 27.6 µM | 4.87 µM | 3.98 µM | 50.2 µM | 88.1 µM | 64 µM | 13.3 µM | 23.8 µM | IC50 (A498 cells): 79.2 µM; IC50 (A2780 cells): 65 µM
COc1ccc2c3c([nH]c2c1)C(CC(CC1=NCCc2c1[nH]c1cc(OC)ccc21)c1ccc(OC)c(O)c1Br)=NCC3 [compound 13] | 25.8 µM | 11.5 µM | 11 µM | 15.8 µM | 6.52 µM | 23.4 µM | 11.7 µM | 7.82 µM | 12.6 µM | 12.9 µM | 13.5 µM | 13.1 µM | 16.6 µM | 11.1 µM | 9.1 µM | 28.5 µM | 17.4 µM | 14 µM | 21.2 µM | 82.5 µM | IC50 (A498 cells): 91.6 µM; IC50 (A2780 cells): 11.8 µM
COc1ccc2c3c([nH]c2c1)C(CC(CC1=NCCc2c1[nH]c1cc(OC)ccc21)c1cccc(-c2ccccc2)c1)=NCC3 [compound 18] | 43.9 µM | 39.8 µM | 12.2 µM | 32.5 µM | 8.55 µM | 31.2 µM | 25 µM | 28.8 µM | 48.7 µM | 34.8 µM | 49.2 µM | 33.6 µM | 36.2 µM | 17.8 µM | 12.3 µM | 36.3 µM | 49.8 µM | 59.1 µM | 45.4 µM | 43.8 µM | IC50 (A498 cells): 93.4 µM; IC50 (A2780 cells): 26.3 µM
C=C(C)C1CC=C(C(CC2=NCCc3c2[nH]c2cc(OC)ccc32)CC2=NCCc3c2[nH]c2cc(OC)ccc32)CC1 (stereo not shown) [compound 28] | 10.1 µM | 8.08 µM | 3.71 µM | 4.51 µM | 2.5 µM | 7.02 µM | 6.17 µM | 4.49 µM | 8.43 µM | 4.75 µM | 5.64 µM | 6.43 µM | 6.58 µM | 4.44 µM | 3.5 µM | 11.9 µM | 10.6 µM |  | 11.3 µM | 7.22 µM | IC50 (A498 cells): 16.3 µM; IC50 (SiHA cells): 13.3 µM
COc1ccc2c3c([nH]c2c1)C(CC(CC1=NCCc2c1[nH]c1cc(OC)ccc21)c1ccc(C(C)C)cc1)=NCC3 [compound 29] | 13.9 µM | 16.6 µM | 5.89 µM | 11.3 µM | 2.09 µM | 11.5 µM | 9.63 µM | 8.07 µM |  | 11.4 µM | 11.4 µM | 7.71 µM | 11.5 µM | 4.4 µM | 4.44 µM | 40 µM |  | 13.6 µM | 13.9 µM | 10.8 µM | IC50 (A498 cells): 42.5 µM; IC50 (SiHA cells): 46.9 µM; IC50 (A2780 cells): 12.1 µM
